According to patent US20250282785A1, “PYRROLIDINONE DERIVATIVES AS INHIBITORS OF NF KAPPA B INDUCING KINASE” (priority 2022, published 2025):

Key:
[1] = test system: p-IKKα levels in L363 (NIK translocated multiple myeloma) cells; test: Effect of compounds on p-IKKα levels in L363 cells (AlphaLISA SureFire Ultra); assay type: cell-based; conditions: Homo sapiens, L-363; L363 cells, BAFF stimulated, MG132, 6 h; average of values; read-out: Assay 2 IC50
Description: Biological Assay 2: Effect of Compounds on p-IKKα Levels in L363 (NIK Translocated Multiple Myeloma) Cells
All compounds tested were dissolved and serially diluted in DMSO, 1:3 dilution for 11 points in an Echo compatible plate. 100% DMSO is added to columns 12 and 24 of the plate to serve as high and low signal controls. This compound plate was used to spot 20 nl of compound or DMSO into a Greiner 384 well TC plate (781080). Final DMSO concentration was […] (v/v) in cell assays. Human L363 cells (ATCC) were cultured in RPMI 1640 medium supplemented with GlutaMax, non-essential amino acids, sodium pyruvate and 10% fetal bovine serum. Cells were routinely maintained at densities of 0.2×10^6 cells per ml −2×10^6 cells per ml at 37° C. in a humidified 5% CO2 atmosphere incubator. Cells were passaged twice a week splitting back to obtain the low density. The day before the assay, cells were washed twice in HBSS, resuspended in DMEM+0.5% IgG and protease free BSA (Jackson Immuno Research Laboratories), +/−250 ng/ml recombinant human B-cell activating factor (BAFF/BLyS/TNFSF13B) and incubated overnight at 37° C. in a humidified 5% CO2 atmosphere (bulk stimulation with or without BAFF). The next day, cell concentration was adjusted to 1×10^7 cells/ml in DMEM+/−250 ng/ml BAFF+/−10 uM MG132 and plated at 10 ul/well into compound or DMSO spotted 384 well TC plates. Seeded cells were incubated at 37° C. in a humidified 5% CO2 atmosphere for 6 h. After 6 h, plates were removed from the incubator and cell lysis was achieved by the addition of 2.5 μl 5× lysis buffer containing protease and phosphatase inhibitors, followed by shaking on a plate shaker at room temperature for 15 min. At the end of this incubation, lysed cells were sequentially treated and incubated with acceptor and donor bead mixes according to the manufacturer's protocol for a 1 plate/2-incubation suspension cell assay (AlphaLISA SureFire Ultra p-IKKα (Ser 176/180) Assay Kit (Perkin ElmeR). Plates were read using an EnVision® Multilabel Plate Reader (Perkin ElmeR). Within an experiment, a concentration response curve for each compound was run in duplicate. Signal obtained in the test wells was normalized using high signal (BAFF stimulated cells, DMSO, MG132) and low signal (unstimulated cells, DMSO) controls. To determine the IC50, a sigmoidal curve was fitted to the plot of % inhibition versus Log10 compound concentration.

[2] = target: Recombinant Human NF-Kappab-Inducing Kinase (NIK/MAP3K14) (Homo sapiens, UniProt Q99558); test: Inhibition of auto-phosphorylation of recombinant human NIK/MAP3K14 (AlphaScreen); assay type: biochemical; conditions: NIK/MAP3K14 auto-phosphorylation, 5 microM ATP, 1 nM enzyme, 2 h at 25° C.; average of values; read-out: Assay 1 IC50
Description: Biological Assay 1: Inhibition of Auto-Phosphorylation of Recombinant Human NF-Kappab-Inducing Kinase (NIK/MAP3K14) Activity (AlphaScreen®)
NIK/MAP3K14 auto-phosphorylation activity was measured using the AlphaScreen® ((αscreen) format (Perkin ElmeR). All compounds tested were dissolved in dimethyl sulfoxide (DMSO) and further dilutions were made in assay buffer. Final DMSO concentration was 0.7% (v/v) in assays. Assay buffer was 50 mM Tris pH 7.5 containing 1 mM EGTA (ethylene glycol tetraacetic acid), 1 mM DTT (dithiothreitol), 0.1 mM Na3VO4, 5 mM MgCl2, 0.01% Tween® 20. Assays were carried out in 384 well Proxiplates (Perkin ElmeR). Incubations consisted of compound, 5 microM Adenosine-5′-triphosphate (ATP), and 1 nM NIK/MAP3K14. Incubations were initiated by addition of GST-tagged NIK/MAP3K14 enzyme, carried out for 2 h at 25° C. and terminated by addition of stop buffer containing anti-phospho-IKK Ser176/180 antibody. Protein A Acceptor and Glutathione-donor beads were added before reading using an EnVision® Multilabel Plate Reader (Perkin ElmeR). Signal obtained in the wells was normalized using high (full enzyme activity, 0.7% DMSO) and low controls (no enzyme activity, 0.7% DMSO, no ATP). IC50's were determined by fitting a sigmoidal curve to % inhibition of control versus Log10 compound concentration.

Chain of Recombinant Human NF-Kappab-Inducing Kinase (NIK/MAP3K14) (Q99558 whole entry): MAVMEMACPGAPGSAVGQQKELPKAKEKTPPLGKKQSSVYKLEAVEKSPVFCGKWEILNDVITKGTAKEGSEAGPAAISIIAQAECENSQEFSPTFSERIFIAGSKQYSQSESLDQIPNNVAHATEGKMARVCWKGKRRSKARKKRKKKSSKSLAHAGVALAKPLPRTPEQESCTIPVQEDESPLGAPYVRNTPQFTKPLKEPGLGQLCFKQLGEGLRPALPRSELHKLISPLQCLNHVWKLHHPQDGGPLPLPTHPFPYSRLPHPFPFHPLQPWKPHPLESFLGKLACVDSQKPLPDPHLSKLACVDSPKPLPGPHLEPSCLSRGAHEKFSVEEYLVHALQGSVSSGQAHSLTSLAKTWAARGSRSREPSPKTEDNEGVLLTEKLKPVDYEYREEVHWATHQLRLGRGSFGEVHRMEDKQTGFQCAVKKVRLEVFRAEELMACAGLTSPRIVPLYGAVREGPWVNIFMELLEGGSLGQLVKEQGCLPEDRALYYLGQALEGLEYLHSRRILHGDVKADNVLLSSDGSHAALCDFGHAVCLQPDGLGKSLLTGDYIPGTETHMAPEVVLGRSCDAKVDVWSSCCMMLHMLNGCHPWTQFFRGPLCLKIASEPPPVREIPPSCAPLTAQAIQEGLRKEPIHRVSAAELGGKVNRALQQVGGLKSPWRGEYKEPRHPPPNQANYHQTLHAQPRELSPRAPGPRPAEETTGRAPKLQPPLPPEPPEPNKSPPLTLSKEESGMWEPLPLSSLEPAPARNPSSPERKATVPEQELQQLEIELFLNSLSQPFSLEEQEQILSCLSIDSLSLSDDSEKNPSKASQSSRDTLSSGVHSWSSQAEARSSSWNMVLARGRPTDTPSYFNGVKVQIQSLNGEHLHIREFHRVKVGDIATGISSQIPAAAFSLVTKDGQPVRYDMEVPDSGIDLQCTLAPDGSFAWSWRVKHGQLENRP

Row | SMILES | IC50 [1] | IC50 [2]
1 | [2H]c1nc(N)c2nc(-c3cccc(-n4cc([C@]5(O)CCN(C)C5=O)nn4)c3)ccc2n1 [Example 35, (R)-3-(1-(3-(4-Aminopyrido[3,2-d]pyrimidin-6-yl-2-d)phenyl)-1H-1,2,3-triazol-4-yl)-3-hydroxy-1-methylpyrrolidin-2-one] | > 501 nM | < 100 nM
2 | [2H]c1nc(N)c2nc(-c3cccc(-n4cc([C@@]5(O)CCN(C)C5=O)nn4)c3)ccc2n1 [Example 36, (S)-3-(1-(3-(4-Aminopyrido[3,2-d]pyrimidin-6-yl-2-d)phenyl)-1H-1,2,3-triazol-4-yl)-3-hydroxy-1-methylpyrrolidin-2-one] | > 501 nM | 100 to 500 nM
3 | CN1CC[C@](O)(c2cn(-c3cccc(-c4cccc(C(N)=O)n4)c3)nn2)C1=O [Example 42, (S)-6-(3-(4-(3-Hydroxy-1-methyl-2-oxopyrrolidin-3-yl)-1H-1,2,3-triazol-1-yl)phenyl)picolinamide] | > 501 nM | > 501 nM
4 | Cc1cc(-c2cccc(-c3cc([C@]4(O)CCN(C)C4=O)on3)c2)nc(C(N)=O)c1N [Example 45, (R)-3-Amino-6-(3-(5-(3-hydroxy-1-methyl-2-oxopyrrolidin-3-yl)isoxazol-3-yl)phenyl)-4-methylpicolinamide] | < 100 nM | < 100 nM
5 | COc1cc(-c2cccc(-c3cc([C@]4(O)CCN(C)C4=O)on3)c2)nc(C(N)=O)c1N [Example 46, (R)-3-Amino-6-(3-(5-(3-hydroxy-1-methyl-2-oxopyrrolidin-3-yl)isoxazol-3-yl)phenyl)-4-methoxypicolinamide] | < 100 nM | < 100 nM
6 | COc1cc(-c2cccc(-c3cc([C@]4(O)CCN(C)C4=O)on3)c2)cc(C(N)=O)n1 [Example 47, (R)-4-(3-(5-(3-Hydroxy-1-methyl-2-oxopyrrolidin-3-yl)isoxazol-3-yl)phenyl)-6-methoxypicolinamide] | > 501 nM | > 501 nM
7 | COc1cc(-c2cccc(-c3cc([C@]4(O)CCN(C)C4=O)on3)c2)nc2c1cnn2C [Example 48, (R)-3-Hydroxy-3-(3-(3-(4-methoxy-1-methyl-1H-pyrazolo[3,4-b]pyridin-6-yl)phenyl)isoxazol-5-yl)-1-methylpyrrolidin-2-one] | > 501 nM | < 100 nM
8 | CN1CC[C@@](O)(c2cc(-c3cccc(-c4ccnc5[nH]ccc45)c3)no2)C1=O [Example 49, (R)-3-(3-(3-(1H-Pyrrolo[2,3-b]pyridin-4-yl)phenyl)isoxazol-5-yl)-3-hydroxy-1-methylpyrrolidin-2-one] | > 501 nM | < 100 nM
9 | CN1CC[C@@](O)(c2cc(-c3cccc(-c4cc(C(F)(F)F)c(N)c(C(N)=O)n4)c3)no2)C1=O [Example 50, (R)-3-Amino-6-(3-(5-(3-hydroxy-1-methyl-2-oxopyrrolidin-3-yl)isoxazol-3-yl)phenyl)-4-(trifluoromethyl)picolinamide] | < 100 nM | < 100 nM
10 | CN1CC[C@@](O)(c2cc(-c3cccc(-c4ccc5cncn5c4)c3)no2)C1=O [Example 51, (R)-3-Hydroxy-3-(3-(3-(imidazo[1,5-a]pyridin-6-yl)phenyl)isoxazol-5-yl)-1-methylpyrrolidin-2-one] | > 501 nM | 100 to 500 nM
11 | CN1CC[C@@](O)(c2cc(-c3cccc(-c4ncnn5cccc45)c3)no2)C1=O [Example 52, (R)-3-Hydroxy-1-methyl-3-(3-(3-(pyrrolo[2,1-f][1,2,4]triazin-4-yl)phenyl)isoxazol-5-yl)pyrrolidin-2-one] | > 501 nM | 100 to 500 nM
12 | CN1CC[C@@](O)(c2cc(-c3cccc(-c4ccnc(N)c4)c3)no2)C1=O [Example 53, (R)-3-(3-(3-(2-Aminopyridin-4-yl)phenyl)isoxazol-5-yl)-3-hydroxy-1-methylpyrrolidin-2-one] | > 501 nM | 100 to 500 nM
13 | CC(=O)Nc1cc(-c2cccc(-c3cc([C@]4(O)CCN(C)C4=O)on3)c2)ccn1 [Example 54, (R)—N-(4-(3-(5-(3-Hydroxy-1-methyl-2-oxopyrrolidin-3-yl)isoxazol-3-yl)phenyl)pyridin-2-yl)acetamide] | > 501 nM | 100 to 500 nM
14 | CCn1ncc2cc(-c3cccc(-c4cc([C@]5(O)CCN(C)C5=O)on4)c3)cnc21 [Example 55, (R)-3-(3-(3-(1-Ethyl-1H-pyrazolo[3,4-b]pyridin-5-yl)phenyl)isoxazol-5-yl)-3-hydroxy-1-methylpyrrolidin-2-one] | > 501 nM | > 501 nM
15 | CN1CC[C@@](O)(c2cc(-c3cccc(-c4cc5c(o4)CCNC5=O)c3)no2)C1=O [Example 56, (R)-2-(3-(5-(3-hydroxy-1-methyl-2-oxopyrrolidin-3-yl)isoxazol-3-yl)phenyl)-6,7-dihydrofuro[3,2-c]pyridin-4(5H)-one] | > 501 nM | > 501 nM
16 | Cc1ncn2cc(-c3cccc(-c4cc([C@]5(O)CCN(C)C5=O)on4)c3)ccc12 [Example 57, (R)-3-Hydroxy-1-methyl-3-(3-(3-(1-methylimidazo[1,5-a]pyridin-6-yl)phenyl)isoxazol-5-yl)pyrrolidin-2-one] | > 501 nM | > 501 nM
17 | CN1CC[C@@](O)(c2cc(-c3cccc(-c4ccn5nccc5c4)c3)no2)C1=O [Example 58, (R)-3-hydroxy-1-methyl-3-(3-(3-(pyrazolo[1,5-a]pyridin-5-yl)phenyl)isoxazol-5-yl)pyrrolidin-2-one] | > 501 nM | 100 to 500 nM
18 | CN1CC[C@@](O)(c2cc(-c3cccc(-c4cccc5c4CNC5=O)c3)no2)C1=O [Example 59, (R)-4-(3-(5-(3-hydroxy-1-methyl-2-oxopyrrolidin-3-yl)isoxazol-3-yl)phenyl)isoindolin-1-one] | > 501 nM | > 501 nM
19 | Cc1ncc2cc(-c3cccc(-c4cc([C@]5(O)CCN(C)C5=O)on4)c3)ccn12 [Example 60, (R)-3-hydroxy-1-methyl-3-(3-(3-(3-methylimidazo[1,5-a]pyridin-7-yl)phenyl)isoxazol-5-yl)pyrrolidin-2-one] | > 501 nM | > 501 nM
20 | CN1CC[C@@](O)(c2cc(-c3cccc(-c4cnc5cnccn45)c3)no2)C1=O [Example 61, (R)-3-Hydroxy-3-(3-(3-(imidazo[1,2-a]pyrazin-3-yl)phenyl)isoxazol-5-yl)-1-methylpyrrolidin-2-one] | > 501 nM | 100 to 500 nM
21 | CN1CC[C@@](O)(c2cc(-c3cccc(-c4ccc5ncn(C)c5c4)c3)no2)C1=O [Example 62, (R)-3-Hydroxy-1-methyl-3-(3-(3-(1-methyl-1H-benzo[d]imidazol-6-yl)phenyl)isoxazol-5-yl)pyrrolidin-2-one] | > 501 nM | > 501 nM
22 | Cc1nc2cc(-c3cccc(-c4cc([C@]5(O)CCN(C)C5=O)on4)c3)ccc2o1 [Example 63, (R)-3-Hydroxy-1-methyl-3-(3-(3-(2-methylbenzo[d]oxazol-5-yl)phenyl)isoxazol-5-yl)pyrrolidin-2-one] | > 501 nM | > 501 nM
23 | CN1CC[C@@](O)(c2cc(-c3cccc(-c4ccn5ncccc45)c3)no2)C1=O [Example 64, (R)-3-Hydroxy-1-methyl-3-(3-(3-(pyrrolo[1,2-b]pyridazin-5-yl)phenyl)isoxazol-5-yl)pyrrolidin-2-one] | > 501 nM | > 501 nM
